These results are taken from patent US20260274910A1, “SINGLE FUSION PROTEIN AND PHARMACEUTICAL COMPOSITION” (MEDI&GENE INC., priority 2023, published 2026).

Data set [1] deals with Akt and S6 (phosphorylation, p-Akt/p-S6) in C2C12 mouse skeletal muscle cell line. The data set can be described thus: Akt and S6 phosphorylation (western blot) in C2C12 muscle cells. To be noted: 2 hours. The class given is cell-based. On the procedure: In order to evaluate functions related to muscle loss diseases, each test substance was treated to the undifferentiated C2C12 mouse skeletal muscle cell line (mouse myoblast cell line) or the cell line in which differentiation into myotubes was completed. Differentiation of the cell line into myotubes was performed by conducting addition of 2% horse serum to culture medium and replacement with new medium every two days for a total of 4 days.
To the undifferentiated or differentiated cell lines, the test substances, fusion proteins (SEQ ID NOs: 1, 2, 3, 7, 14 and 15) were treated at a concentration of 100 nM (Control: PBS treated group) for 2 hours. Thereafter, the cells were immediately washed once and the cells were lysed with RIPA buffer (Radioimmunoprecipitation assay buffer). The activity of Akt and S6 (phosphorylation, p-Akt/p-S6) was observed by western blot. Akt phosphorylation is a well-known marker of activation of cell signaling pathways, and is an indicator of beneficial effects on muscle cells such as promotion of glucose metabolism and promotion of muscle biosynthesis. Similarly, S6 phosphorylation is a well-known marker of mTOR activity, and the activity of mTOR is an indicator showing muscle biosynthesis and various cell signaling pathways.

Data set [2] concerns MDA-MB-231 triple-negative breast cancer cell line. As to the kind of experiment: MTT cell viability in breast cancer cells. The class given is cell-based. The settings on record: 1 μM, 48 hours; compared with Control (PBS), SEQ ID NO: 4 and SEQ ID NO: 5. On the procedure:
Next, the test substances, the fusion proteins (SEQ ID NO: 1, 2, 3, 7, 14, 15) and shortened sequences (SEQ ID NOs: 9, 10, 11, 12) were treated to MDA-MB-231 triple-negative breast cancer cell line at a concentration of 1 μM (Control: PBS) for 48 hours. Thereafter, the cells were washed with PBS once, and the cells were suspended in serum-free buffer. The MTT (3-[4,5-dimethylthiazol-2-yl]-2,5-diphenyltetrazolium bromide) substance was added thereto at 0.5 mg/ml and incubated at 37° C. for 2 hours. Then, they were washed with PBS once, and the cells were lysed with DMSO for 15 minutes. The solution was transferred to a new plate and the absorbance was measured at 590 nm using a microplate reader.

For the next data set, the system named is MDA-MB-231 cell line. The data set can be described thus: Reactive oxygen generation (DCF-FA) in breast cancer cells. The class given is cell-based. The settings on record: 1 μM, 24 hours; compared with Control and SEQ ID NO: 5. The procedure:
In addition, in order to examine generation of reactive oxygen that plays an important role in cancer cell death, each test substance was treated to the MDA-MB-231 cell line at a concentration of 1 μM (Control: PBS) for 24 hours. Then, the cells were stained with DCF-FA and their fluorescence values were observed and compared at 485/535 nm.

In another data set the test system is cAMP (cyclic AMP). As to the kind of experiment: cAMP level (hTRF) in undifferentiated 3T3-L1 cells. Format: cell-based, mouse. To be noted: undifferentiated 3T3-L1, 100 nM with 0.5 mM IBMX, 30 minutes; compared with Control and SEQ ID NO: 5. On the procedure: (§1) To observe the functionality of the fusion proteins related to lipid metabolism, the 3T3-L1 mouse pre-adipocyte cell line was used as the cell line itself (undifferentiated) or by differentiating into adipocytes. Differentiation into the adipocytes was performed by inducing primary differentiation for the 3T3-L1 cells in a medium containing DMEM, 10% FBS, 10 μg/ml insulin, 0.5 mM IBMX (3-Isobutyl-1-methylxanthine), and 1 μM dexamethasone for 2 days, and inducing secondary differentiation with a medium containing DMEM, 10% FBS, and 10 μg/ml insulin for the remaining 4 days. The adipocytes in which differentiation was finally completed were treated with the test substances at a concentration of 100 nM for 30 hours (Control: PBS) and then used for each test.
Next, changes in cAMP (cyclic AMP), a signaling mediator contributing to lipolysis and energy metabolism were evaluated in the undifferentiated adipocytes. The undifferentiated cells were treated with the test substances at a concentration of 100 nM (Control: PBS) with 0.5 mM IBMX for 30 minutes. Thereafter, the level of cAMP was evaluated by the hTRF (Homogeneous Time Resolved Fluorescence) method (using CAMP Gs dynamic kit from Cisbio). As a result of the measurement, it was confirmed that the level of cAMP was higher in the groups treated with the fusion proteins (SEQ ID NOs: 1, 2, 3, 7, 13, 14, 15) and shortened sequences (sequences 9, 10, 11) compared with the Control and His tag-wild-type substance (1-81) (SEQ ID NO: 5) (FIG. 7).
A general note: Cyclic AMP is a second messenger, typically raised through Gs and lowered through Gi signalling.

For data set [3], the system named is follicular cells (dermal papilla cells). The data set can be described thus: Follicular cell proliferation by MTT assay. Format: cell-based. The settings on record: 100 nM, 24 hours; compared with Control (PBS). On the procedure: Whether the test substances of the present invention has effects on preventing hair loss or promoting hair growth was evaluated as follows. Specifically, it was observed whether they have efficacy of improving loss of follicular cells in scalp tissue which is a cause of hair loss, or hair growth due to an increase in hair follicles, by using dermal papilla cells and evaluating cell proliferation of follicular cells.
The follicular cells were treated with each test substance 100 nM (control: PBS) for 24 hours, and the degree of cell proliferation was evaluated by MTT assay.

In data set [4] the test system is sciatic nerve transection mouse model. The data set can be described thus: Sciatic nerve transection muscle atrophy model. Format: in vivo, C57BL/6 male mice. To be noted: versus control; for Grip strength: 5.0 mg/kg subcutaneous 6 times a week for 9 weeks; for Muscle mass (DXA assay): 5.0 mg/kg subcutaneous 6 times a week, fourth week. The procedure: The effects of the test substances on muscle diseases accompanied by muscle loss were evaluated using a sciatic nerve transection mouse model.
In the sciatic nerve transection mouse model, muscle atrophy was induced as follows. The thigh muscles of C57BL/6 male mice were transversely incised to expose sciatic nerves, and then the sciatic nerves were transected to weaken the nerves in the muscle tissue and induce muscle atrophy. The incised site was sutured, and a recovery period of one week was provided after the surgery.
To each mouse after the recovery period, the test substance (Control-PBS; and fusion protein) assigned to each group was subcutaneously injected at a concentration of 5.0 mg/kg 6 times a week for 9 weeks (Control: n=8, No. 13: n=9, No. 14: n=9, No. 15: n=8). The effects of improving muscle loss were measured with an X-ray body composition analyzer (DXA assay) in the fourth week of test substance administration, and the effects of improving muscle function was compared by measuring grip strength.

Data set [5] relates to diet-induced obesity-induced impaired glucose tolerance mice. The data set can be described thus: Diet-induced obesity-induced impaired glucose tolerance model (glucose tolerance test). Format: in vivo, C57BL/6N mice. To be noted: 5.0 mg/kg 1 hour before intraperitoneal 20% glucose, after 8 hours fasting. On the procedure:
In order to secure an impaired glucose tolerance model, conditions causing glucose metabolic disorders in mice by diet-induced obesity were designed. As an animal model, 5-week-old male C57BL/6N mice were obtained and after undergoing an acclimation period by providing a normal diet for 1 week, they were used, and the housing conditions were maintained at 18~24° C., 50~60% humidity, and ad libitum feeding with free access to feed and water was carried out during both the acclimation period and experimental period.
In order to induce impaired glucose tolerance to the mice which had undergone the acclimation period of 1 week, a high-fat diet was supplied to induce obesity. The high-fat diet was provided by preparing as Table 10 below.
The obesity-induced mice were divided into a control group (negative control group; n=14) and an experimental group (fusion protein SEQ ID NOs: 14, 15; No. 14: n=9, No. 15: n=9) and subjected to fasting for 8 hours. Thereafter, PBS to the control, and the fusion protein to the experimental group were administered at a concentration of 5.0 mg/kg, and after 1 hours, a 20% glucose solution was intraperitoneally injected. Blood was collected at each time point and analyzed using a glucometer.

The subject of another data set is plasma proteins. As to the kind of experiment: Plasma protein binding test (PPB). Format: in vitro ADME, mice. The settings on record: mouse plasma, 5 uM, 37° C., 4 hours, 100 kD filter, western blot. On the procedure:
Such an increase in half-life was further confirmed by measuring plasma protein binding rates (Plasma protein binding test, PPB). […] Each of the plasma of the mice and the fusion protein (SEQ ID NO: 13), and or His tag-wild-type substance (1-81) (SEQ ID NO: 5) was incubated at a concentration of 5 uM at 37° C. for 4 hours. After that, they were centrifuged with a 100 kD filter to obtain fractions of the substance bound to the plasma proteins or fractions of the unbound substance. Each of the obtained fractions was evaluated by western blot.
On the technique in general: In western blotting, separated proteins are transferred to a membrane and probed.

For data set [6], the system named is UCP-1 (uncoupling protein 1). The data set can be described thus: UCP-1 expression (RT-PCR) in differentiated 3T3-L1 adipocytes. The class given is cell-based, mouse. The settings on record: 100 nM, 30 hours. The procedure: as §1
UCP-1 (uncoupling protein 1) is a representative biomarker related to thermogenesis, indicating browning and energy metabolism activation of adipocytes. In order to observe changes in expression of UCP-1 mRNA and protein by treatment of the fusion proteins, mRNA and protein were isolated from the cells treated with each test substance and RT-PCR and western blot were performed.

The next data set has as its system 3T3-L1 adipocytes. The data set can be described thus: Lipid droplet analysis (BODIPY 493/503, confocal) in 3T3-L1 adipocytes. To be noted: differentiated 3T3-L1 adipocytes, 100 nM, 30 hours. Format: cell-based, mouse. The procedure: as §1
In addition, lipid droplets of adipocytes were stained with BODIPY 493/503 dye sample, and then confocal image scanning was performed to analyze the size and diameter of the lipid droplets.

Data set [7] in a line: Half-life in mice, NIR dye-conjugated substance, plasma fluorescence.
Description: For evaluation, ten-week-old C57BL/6 mice were used, and the mice were reared in a specialized animal facility which provided a normal diet and a 12/12 hour night/day cycle and then used for experimentation.
The synthetic peptide (SEQ ID NO: 8) and fusion protein (SEQ ID NO: 13) were each injected into the mice at a concentration of 2.5 mg/kg, and blood was collected at 0, 0.5, 2, 4, 24 hours after injection. The collected blood was centrifuged and the obtained plasma was analyzed. At this time, in order to perform effective quantification of the substances, each substance was conjugated with Dylight 680 Near-Infrared dye (NIR) in advance prior to injection, and the finally collected blood samples were examined by observing fluorescent signals with a SpectraMax i3 microplate reader device.
Where [8] appears, read: Table 6, C2C12, 100 nM, differentiation state not given.

In the case of “SEQ ID NO: 15: Recombinant protein: Shortened substance (1-47)-Shortened linker-Fc fusion”, in data set [1] (setting [8]), the “Activity (% increase compared to control) Akt” value came out at 548% and the “Activity (% increase compared to control) S6” value stood at 232%. Moreover, in [1] (differentiated cell line, 100 nM), the “Activity of Akt and S6 compared with control and His tag-wild-type substance (SEQ ID NO: 5)” value is given as “significantly higher activity”. In addition, in [2], the “Cell viability (MTT)” value is “significantly low”. Also, the Reactive oxygen generation entry in the data set on MDA-MB-231 cell line is “generated higher”. Besides, the “Level of cAMP” value in the data set with cAMP (cyclic AMP) is “higher”. In addition, in [3], the “Cell viability (MTT, cell proliferation)” value was “significantly increased”. In [4], the Grip strength result is on record as “higher performance” and the “Muscle mass (DXA assay)” value was “significantly increased”. In data set [5], the “Blood glucose variation over time (GLUAUC) compared with the control group” value is listed as “significant difference”.

For the substance “SEQ ID NO: 13: Recombinant protein: Wild-type substance (1-81)-Shortened linker-Fc fusion”, the “Binding rate with the plasma proteins” value with plasma proteins is given as 74%. Also, in the data set on MDA-MB-231 cell line, the Reactive oxygen generation result was “generated higher”. For the same substance, the “mRNA level of UCP-1” value in [6] is listed as “significantly increased”. In the data set on 3T3-L1 adipocytes, the Lipid droplet size entry is listed as “reduced at a significant level”, the “Maximum lipid droplet diameter per cell” value is “reduced at a significant level” and the “Total lipid droplet area” value was “reduced at a significant level”. In addition, the “Level of cAMP” value in the data set with cAMP (cyclic AMP) was “higher”. Moreover, the “Cell viability (MTT, cell proliferation)” value in data set [3] is reported as “significantly increased”. Also, in data set [4], the Grip strength result was “higher performance” and the “Muscle mass (DXA assay)” value is reported as “significantly increased”. Besides, the “Half-life increase of fusion protein versus synthetic peptide (SEQ ID NO: 8)” value in [7] (2.5 mg/kg) was “approximately 11.8 times”. In data set [7] (injected at 2.5 mg/kg, Dylight 680 NIR-conjugated, plasma at 0, 0.5, 2, 4, 24 hours), this substance gave a Half-life of 18.9 h.
